These compounds were tested against human TREX1 (Homo sapiens (Human), UniProt Q9NSU2) (assay: TREX1 Exonuclease Assay).
human TREX1, sequence (Q9NSU2 whole entry): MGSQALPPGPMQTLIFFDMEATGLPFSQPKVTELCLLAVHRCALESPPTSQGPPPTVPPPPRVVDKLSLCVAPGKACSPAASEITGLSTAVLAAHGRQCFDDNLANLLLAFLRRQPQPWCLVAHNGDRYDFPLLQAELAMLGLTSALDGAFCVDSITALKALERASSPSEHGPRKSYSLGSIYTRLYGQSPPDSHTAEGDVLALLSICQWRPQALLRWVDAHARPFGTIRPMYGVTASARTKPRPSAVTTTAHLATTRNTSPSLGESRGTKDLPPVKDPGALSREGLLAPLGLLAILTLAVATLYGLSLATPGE
Assay type: biochemical
Protocol: For human TREX1, the nucleotide sequence of the gene construct was codon optimized for expression in the bacterial host. The sequence was incorporated into the pMAL-c5e vector (NEB) downstream of a solubility-promoting MBP (maltose binding protein) fusion partner. The fusion protein product was expressed in E. coli strain BL21 (DE3) (Millipore) and purified in a series of chromatographic steps. Initial steps were conducted using a dextrin sepharose affinity column followed by a Q-sepharose ion exchange column (both GE Healthcare). After the second column the MBP partner was removed by incubation with enterokinase (NEB). Further purification was carried out with the second application of a Q-sepharose column followed by a Superdex 75 (GE Healthcare) size exclusion column. Finally, a heparin sepharose column (GE Healthcare) was applied to remove contaminating nucleotides.
To evaluate the effect of compounds on TREX1 activity, test compounds were serially diluted (11-point, 3-fold) from 10 mM stock solutions and delivered to 384-well low-volume assay plates in 80 nL DMSO using an acoustic dispenser. Next, 4 μL of human TREX1 (0.5 nM), or murine TREX1 (1 nM), diluted in assay buffer (20 mM Tris pH 7.5, 5 mM MgCl2, 100 μg/mL BSA, 0.002% Triton X-100, 2 mM DTT), was added to the assay plate. After incubating for 30 minutes, 4 μL of labeled DNA oligonucleotide (500 nM) in assay buffer was added to initiate TREX1 exonuclease activity. The reaction was allowed to proceed for 45 minutes at room temperature prior to the addition of 4 μL of 150 mM EDTA to halt TREX1 activity.
`NC(=O)CC[C@H](C(=O)N1Cc2cc(Cl)c(Cl)cc2C1)N1CCC(CCc2ccccc2)N2C[C@H](N)C[C@H]2C1=O` (some centres unmarked) [Example 20] was tested, and the IC50 was 10000 to 100000 nM. With `CCOC(=O)CC[C@H](C(=O)NCc1cc(Cl)c(Cl)cc1F)N1CCC(CCc2ccccc2)N2C[C@H](N)C[C@H]2C1=O` (some centres unmarked) [Example 94] the IC50 was < 1000 nM. With `N[C@@H]1C[C@H]2C(=O)N(c3cccn(Cc4ccc(Cl)c(Cl)c4)c3=O)CCC(CCc3ccccc3)N2C1` (some centres unmarked) [Example 38] the IC50 was < 1000 nM. In the case of `N#CCC[C@H](C(=O)NCc1ccc(Cl)c(Cl)c1)N1CCC(COc2cccc(F)c2)N2C[C@H](N)C[C@H]2C1=O` (some centres unmarked) [Example 111], the IC50 is reported as < 1000 nM. With `N[C@@H]1C[C@H]2C(=O)N([C@@H]3CCCN(C(=O)c4ccc(Cl)c(Cl)c4)C3)CCC(CCc3ccccc3)N2C1` (some centres unmarked) [Example 85] the IC50 was 10000 to 100000 nM. With `CCOC(=O)CC[C@H](C(=O)NCc1ccc(Cl)c(Cl)c1OC)N1CCC(CCc2ccccc2)N2C[C@H](N)C[C@H]2C1=O` (some centres unmarked) [Example 102] the IC50 was < 1000 nM. In the case of `N[C@@H]1C[C@H]2C(=O)N([C@H](CCC(=O)O)C(=O)NCc3ccc(Cl)c(Cl)c3)CCC(COc3cccc(Cl)c3)N2C1` (some centres unmarked) [Example 76], the IC50 is reported as < 1000 nM. In the case of `CC(C)C[C@H](C(=O)NCc1ccccc1Cl)N1CCC(CCc2ccccc2)N2C[C@H](N)C[C@H]2C1=O` (some centres unmarked) [Example 44], the IC50 is reported as < 1000 nM. For `N#CC[C@H](C(=O)NCc1ccc(Cl)c(Cl)n1)N1CCC(CCc2ccccc2)N2C[C@H](N)C[C@H]2C1=O` (some centres unmarked) [Example 113], the IC50 was < 1000 nM. In the case of `CCOC(=O)N[C@@H]1C[C@H]2C(=O)N([C@H](CCC(=O)O)C(=O)NCc3ccc(Cl)c(Cl)c3)CCC(CCc3ccccc3)N2C1` (some centres unmarked) [Example 143], the IC50 is reported as 10000 to 100000 nM. In the case of `N[C@@H]1C[C@H]2C(=O)N([C@H](CCC(=O)O)C(=O)NCc3ccc(Cl)cn3)CCC(CCc3ccccc3)N2C1` (stereo partly drawn) [Example 70, (4R)-4-((8R,9aS)-8-amino-1-oxo-5-phenethylhexahydro-1H-pyrrolo[1,2-a][1,4]diazepin-2(3H)-yl)-5-(((5-chloropyridin-2-yl)methyl)amino)-5-oxopentanoic Acid], the IC50 is reported as < 1000 nM. With `CCOC(=O)CC[C@H](C(=O)N1CCOC[C@H]1c1ccc(Cl)c(Cl)c1)N1CCC(CCc2ccccc2)N2C[C@H](N)C[C@H]2C1=O` (some centres unmarked) [Example 96] the IC50 was < 1000 nM. `N#CCC[C@H](C(=O)NCc1ccc(Cl)c(Cl)c1)N1CCC(COc2ccc(F)cc2)N2C[C@H](N)C[C@H]2C1=O` (some centres unmarked) [Example 110] was tested, and the IC50 was < 1000 nM. In the case of `COc1c(CNC(=O)[C@@H](CCC(N)=O)N2CCC(CCc3ccccc3)N3C[C@H](N)C[C@H]3C2=O)ccc(Cl)c1Cl` (some centres unmarked) [Example 106], the IC50 is reported as < 1000 nM. `CCOC(=O)CC[C@H](C(=O)NCc1cc(Cl)c(Cl)cc1OC)N1CCC(CCc2ccccc2)N2C[C@H](N)C[C@H]2C1=O` (some centres unmarked) [Example 103] was tested, and the IC50 was < 1000 nM. In the case of `N#CC[C@H](C(=O)NCc1ccc(Cl)c(Cl)c1)N1CCC(CCc2ccccc2)N2C[C@H](N)C[C@H]2C1=O` (some centres unmarked) [Example 112], the IC50 is reported as < 1000 nM. `NC(=O)C[C@H](C(=O)NCc1ccc(Cl)c(Cl)c1)N1CCC(CCc2ccccc2)N2C[C@H](N)C[C@H]2C1=O` (some centres unmarked) [Example 23] was tested, and the IC50 was < 1000 nM. `COc1ccc(CNC(=O)[C@@H](CC(C)C)N2CCC(CCc3ccccc3)N3C[C@H](N)C[C@H]3C2=O)cc1` (some centres unmarked) [Example 59] was tested, and the IC50 was < 1000 nM. With `CC(C)OC(=O)CC[C@H](C(=O)NCc1ccc(Cl)c(Cl)c1)N1CCC(CCc2ccccc2)N2C[C@H](N)C[C@H]2C1=O` (some centres unmarked) [Example 92] the IC50 was < 1000 nM. For `CC(C)C[C@H](C(=O)NCc1ccc(C#N)cc1)N1CCC(CCc2ccccc2)N2C[C@H](N)C[C@H]2C1=O` (some centres unmarked) [Example 49], the IC50 was < 1000 nM. With `N#CC[C@H](C(=O)NCc1ccc(Cl)cn1)N1CCC(CCc2ccccc2)N2C[C@H](N)C[C@H]2C1=O` (stereo partly drawn) [Example 63, (2R)-2-((8R,9aS)-8-amino-1-oxo-5-phenethylhexahydro-1H-pyrrolo[1,2-a][1,4]diazepin-2(3H)-yl)-N-((5-chloropyridin-2-yl)methyl)-3-cyanopropanamide.HCOOH] the IC50 was < 1000 nM. With `COC(=O)CC[C@H](C(=O)NCc1ccc(Cl)cn1)N1CCC(CCc2ccccc2)N2C[C@H](N)C[C@H]2C1=O` (some centres unmarked) [Example 100] the IC50 was < 1000 nM. `CCOC(=O)CC[C@H](C(=O)NCc1ccc(Cl)c(Cl)c1)N1CCC(CCc2ccccc2)N2C[C@H](NC(=O)OCC)C[C@H]2C1=O` (some centres unmarked) [Example 145] showed an IC50 of 10000 to 100000 nM. With `N[C@@H]1C[C@H]2C(=O)N([C@@H]3CCCN(S(=O)(=O)c4ccccc4)C3)CCC(CCc3ccccc3)N2C1` (some centres unmarked) [Example 84] the IC50 was 10000 to 100000 nM. With `CCN(CC)C(=O)COC(=O)CC[C@H](C(=O)NCc1ccc(Cl)c(Cl)c1)N1CCC(CCc2ccccc2)N2C[C@H](N)C[C@H]2C1=O` (stereo partly drawn) [Example 88, (4R)-2-(diethylamino)-2-oxoethyl 4-((8R,9aS)-8-amino-1-oxo-5-phenethylhexahydro-1H-pyrrolo[1,2-a][1,4]diazepin-2(3H)-yl)-5-((3,4-dichlorobenzyl)amino)-5-oxopentanoate] the IC50 was < 1000 nM. For `N[C@@H]1C[C@H]2C(=O)N([C@H](CCNS(=O)(=O)C(F)(F)F)C(=O)NCc3ccc(Cl)c(Cl)c3)CCC(CCc3ccccc3)N2C1` (some centres unmarked) [Example 142], the IC50 was < 1000 nM. `COC(=O)CC[C@H](C(=O)NS(=O)(=O)c1ccc(Cl)c(Cl)c1)N1CCC(CCc2ccccc2)N2C[C@H](N)C[C@H]2C1=O` (some centres unmarked) [Example 101] was tested, and the IC50 was < 1000 nM. With `CC(C)Oc1c(CNC(=O)[C@@H](CCC#N)N2CCC(CCc3ccccc3)N3C[C@H](N)C[C@H]3C2=O)ccc(Cl)c1Cl` (some centres unmarked) [Example 141] the IC50 was < 1000 nM. With `CN(Cc1ccc(Cl)c(Cl)c1)C(=O)[C@@H](CC#N)N1CCC(CCc2ccccc2)N2C[C@H](N)C[C@H]2C1=O` (some centres unmarked) [Example 65] the IC50 was < 1000 nM. With `N#CC[C@H](C(=O)N1CCc2cc(Cl)c(Cl)cc2C1)N1CCC(CCc2ccccc2)N2C[C@H](N)C[C@H]2C1=O` (some centres unmarked) [Example 66] the IC50 was 1000 to 9990 nM. `N[C@@H]1C[C@H]2C(=O)N([C@H](CCC(=O)O)C(=O)NCc3ccc(Cl)c(Cl)c3)CCC(CCOc3ccccc3)N2C1` (stereo partly drawn) [Example 71, (4R)-4-((8R,9aS)-8-amino-1-oxo-5-(2-phenoxyethyl)hexahydro-1H-pyrrolo[1,2-a][1,4]diazepin-2(3H)-yl)-5-((3,4-dichlorobenzyl)amino)-5-oxopentanoic Acid] gave an IC50 of 1000 to 9990 nM. `CC(C)C[C@H](C(=O)NCc1ccc(F)c(F)c1)N1CCC(CCc2ccccc2)N2C[C@H](N)C[C@H]2C1=O` (some centres unmarked) [Example 53] was tested, and the IC50 was < 1000 nM. With `N[C@@H]1C[C@H]2C(=O)N([C@H]3CCCN(Cc4ccc(Cl)c(Cl)c4)C3=O)CCC(CCc3ccccc3)N2C1` (some centres unmarked) [Example 34] the IC50 was < 1000 nM. For `N[C@@H]1C[C@H]2C(=O)N([C@H](CCC(=O)O)C(=O)N3CCCC[C@H]3c3ccc(Cl)c(Cl)c3)CCC(CCc3ccccc3)N2C1` (some centres unmarked) [Example 26], the IC50 was < 1000 nM. In the case of `N[C@@H]1C[C@H]2C(=O)N([C@H]3CCN(Cc4ccc(Cl)c(Cl)c4)C3=O)CCC(CCc3ccccc3)N2C1` (some centres unmarked) [Example 33], the IC50 is reported as < 1000 nM. With `CCOC(=O)CC[C@H](C(=O)N1CCCC[C@H]1c1ccc(Cl)c(Cl)c1)N1CCC(CCc2ccccc2)N2C[C@H](N)C[C@H]2C1=O` (some centres unmarked) [Example 97] the IC50 was < 1000 nM. `N[C@@H]1C[C@H]2C(=O)N([C@H](CCC(=O)NO)C(=O)NCc3ccc(Cl)c(Cl)c3)CCC(CCc3ccccc3)N2C1` (some centres unmarked) [Example 116] was tested, and the IC50 was < 1000 nM. With `CC(C)C[C@H](C(=O)NCc1ccc(Cl)c(C(F)(F)F)c1)N1CCC(CCc2ccccc2)N2C[C@H](N)C[C@H]2C1=O` (some centres unmarked) [Example 55] the IC50 was < 1000 nM. With `N[C@@H]1C[C@H]2C(=O)N([C@@H]3CCCN(Cc4ccc(Cl)c(Cl)c4)C3=O)CCC(CCc3ccccc3)N2C1` (some centres unmarked) [Example 35] the IC50 was < 1000 nM. For `N[C@@H]1C[C@H]2C(=O)N([C@H](CCC(=O)O)C(=O)NCc3ccc(Cl)c(Cl)c3)CCC(COc3ccc(Cl)cc3)N2C1` (some centres unmarked) [Example 74], the IC50 was < 1000 nM. `N#CC[C@H](C(=O)NCc1ccc(Cl)c(C(F)(F)F)c1)N1CCC(CCc2ccccc2)N2C[C@H](N)C[C@H]2C1=O` (some centres unmarked) [Example 64] was tested, and the IC50 was < 1000 nM. In the case of `CC(=O)NCC[C@H](C(=O)NCc1ccc(Cl)c(Cl)c1)N1CCC(CCc2ccccc2)N2C[C@H](N)C[C@H]2C1=O` (some centres unmarked) [Example 131], the IC50 is reported as < 1000 nM. Compound `CC(C)C[C@H](C(=O)NCc1cc(Cl)cc(Cl)c1)N1CCC(CCc2ccccc2)N2C[C@H](N)C[C@H]2C1=O` (some centres unmarked) [Example 50] has an IC50 of 1000 to 9990 nM. `N[C@@H]1C[C@H]2C(=O)N([C@H](CCC(=O)O)C(=O)NCc3ccc(Cl)c(Cl)c3)CCC(COc3ccc(F)cc3)N2C1` (some centres unmarked) [Example 75] was tested, and the IC50 was < 1000 nM. `N[C@@H]1C[C@H]2C(=O)N([C@H](CCC(=O)O)C(=O)NCc3ccc(Cl)c(Cl)c3)CCC(COc3ccccc3Cl)N2C1` (some centres unmarked) [Example 78] was tested, and the IC50 was < 1000 nM. `N=C(N)NCCC[C@H](C(=O)NCc1ccc(Cl)c(Cl)c1)N1CCC(CCc2ccccc2)N2C[C@H](N)C[C@H]2C1=O` (some centres unmarked) [Example 24] was tested, and the IC50 was < 1000 nM. `Cc1ccc(CNC(=O)[C@@H](CC(C)C)N2CCC(CCc3ccccc3)N3C[C@H](N)C[C@H]3C2=O)cc1Cl` (some centres unmarked) [Example 57] was tested, and the IC50 was < 1000 nM. For `CC(C)C[C@H](C(=O)NCc1ccc(Cl)c(F)c1)N1CCC(CCc2ccccc2)N2C[C@H](N)C[C@H]2C1=O` (some centres unmarked) [Example 54], the IC50 was < 1000 nM. For `Cn1c(Cl)ccc(CNC(=O)[C@@H](CCC(=O)O)N2CCC(CCc3ccccc3)N3C[C@H](N)C[C@H]3C2=O)c1=O` (some centres unmarked) [Example 37], the IC50 was < 1000 nM. With `COc1ccc(CNC(=O)[C@@H](CC(C)C)N2CCC(CCc3ccccc3)N3C[C@H](N)C[C@H]3C2=O)cc1Cl` (some centres unmarked) [Example 58] the IC50 was < 1000 nM.
